# According to US4975370A, “Process for preparing 14-hydroxy-6-O-methyl-erythromycin A” (Taisho Pharmaceutical Co., Ltd., priority 1986, dated 1990):
# Experiments:
# [1] = system: Streptococcus pneumoniae IID 553; experiment: In vivo antibacterial test, experimental infection in mouse; conditions: Streptococcus pneumoniae IID 553 infection (intraperitoneal), male ICR mice 26±1 g, drug orally, 7 days observation, probit analysis
# Method: (§1) The in vivo antibacterial activity of 14-hydroxy-6-O-methylerythromycin A was measured by effect of treatment on experimental infectious diseases in mouse. 6-O-methylerythromycin A and erythromycin A were used as comparative drugs. Staphylococcus aureus BB and Streptococcus pneumoniae IID 553 were used as experimental infectious diseases of mouse. Ten male ICR mice, weighing 26±1 g, were used for each group to a different concentration of one drug. The bacteria were administered intraperitoneally to each groups of […] for infection. 14-hydroxy-6-O-methylerythromycin A, 6-O-methylerythromycin A and erythromycin A were administered orally to different groups of mice. After observing for 7 days, ED50 value was calculated from the number of mice serviving.
# (§2) The ED50 values having 95% confidence limits were estimated by probit analysis.
# Staphylococcus aureus BB [2] = experiment: as above; conditions: Staphylococcus aureus BB infection (intraperitoneal), male ICR mice 26±1 g, drug orally, 7 days observation, probit analysis
# Method: as §1, §2
# Gram-positive bacteria [3] = experiment: In vivo antibacterial activity (general statement, effective amount)
# [4] = Acute toxicity (LD50) in ICR mice; conditions: mouse, in vivo, intravenous administration
# Solubility = assay type: physicochemical
# [5] = system: Enterococcus faecalis ATCC 8043; experiment: In vitro antibacterial activity (MIC method of the Japan Chemotherapeutic Society); assay type: cell-based; conditions: ATCC8043, read-out: MIC (minimum inhibitory concentration)
# Method: (§3) The antibacterial activity (MIC: minimum inhibitory concentration) of 14-hydroxy-6-O-methylerythromycin A was measured according to the MIC method specified by the Japan Chemotherapeutic Society.
# [6] = system: Staphylococcus epidermidis IID 866; experiment: as above; assay type: cell-based; conditions: IID866, read-out: MIC (minimum inhibitory concentration)
# Method: as §3
# [7] = system: Neisseria gonorrhoeae TCC-4; experiment: as above; assay type: cell-based; conditions: TCC4, read-out: MIC (minimum inhibitory concentration)
# Method: as §3
# [8] = system: Staphylococcus pyogenes IID 689; experiment: as above; assay type: cell-based; conditions: Streptococcus pyogenes, IID689, read-out: MIC (minimum inhibitory concentration)
# Method: as §3
# [9] = system: Haemophilus influenzae J-48; experiment: as above; assay type: cell-based; conditions: J48, read-out: MIC (minimum inhibitory concentration)
# Method: as §3
# [10] = system: Micrococcus luteus ATCC 9341; experiment: as above; assay type: cell-based; conditions: ATCC9341, read-out: MIC (minimum inhibitory concentration)
# Method: as §3
# Branhamella catarrhalis = experiment: as above; assay type: cell-based; conditions: Moraxella catarrhalis, read-out: MIC (minimum inhibitory concentration)
# Method: as §3
# [11] = system: Staphylococcus pneumoniae IDD 552; experiment: as above; assay type: cell-based; conditions: IDD552, read-out: MIC (minimum inhibitory concentration)
# Method: as §3
# Salmonella enteritidis = experiment: as above; assay type: cell-based; conditions: Salmonella enterica, read-out: MIC (minimum inhibitory concentration)
# Method: as §3
# [12] = system: Klebsiella pneumoniae IFO 3317; experiment: as above; assay type: cell-based; conditions: IFO3317, read-out: MIC (minimum inhibitory concentration)
# Method: as §3
# [13] = system: Bacillus subtilis ATCC 6633; experiment: as above; assay type: cell-based; conditions: ATCC6633, read-out: MIC (minimum inhibitory concentration)
# Method: as §3
# [14] = system: Staphylococcus pneumoniae IDD 553; experiment: as above; assay type: cell-based; conditions: IDD553, read-out: MIC (minimum inhibitory concentration)
# Method: as §3
# Micrococcus luteus NIHJ = experiment: as above; assay type: cell-based; conditions: read-out: MIC (minimum inhibitory concentration)
# Method: as §3
# [15] = system: Staphylococcus aureus 209P-JC; experiment: as above; assay type: cell-based; conditions: read-out: MIC (minimum inhibitory concentration)
# Method: as §3
# [16] = system: Escherichia coli NIHJ JC-2; experiment: as above; assay type: cell-based; conditions: NIHJJC2, read-out: MIC (minimum inhibitory concentration)
# Method: as §3
# Staphylococcus aureus BB [17] = experiment: as above; assay type: cell-based; conditions: read-out: MIC (minimum inhibitory concentration)
# Method: as §3
# [18] = system: Staphylococcus aureus Smith 4; experiment: as above; assay type: cell-based; conditions: SMITH4, read-out: MIC (minimum inhibitory concentration)
# Method: as §3
# [19] = system: Gram-negative bacteria, especially Neisseria gonorroeae and Haemophilus influenzae; experiment: In vitro antibacterial activity (general statement); assay type: cell-based; conditions: some Gram-negative bacteria
# Gram-positive bacteria [20] = experiment: as above; assay type: cell-based
smiles,measurement,setting,value
"CC[C@H]1OC(=O)[C@H](C)[C@@H](O[C@H]2C[C@@](C)(OC)[C@@H](O)[C@H](C)O2)[C@H](C)[C@@H](O[C@@H]2O[C@H](C)C[C@H](N(C)C)[C@H]2O)[C@](C)(OC)C[C@@H](C)C(=O)[C@H](C)[C@@H](O)[C@]1(C)O [6-O-Methyl-erythromycin A, 6-O-methylerythromycin A]",ED50,[1],0.222 mg/mouse
same,ED50,Staphylococcus aureus BB [2],0.394 mg/mouse
CO[C@]1(C)C[C@@H](C)C(=O)[C@H](C)[C@@H](O)[C@](C)(O)[C@@H](C(C)O)OC(=O)[C@H](C)[C@@H](O[C@H]2C[C@@](C)(OC)[C@@H](O)[C@H](C)O2)[C@H](C)[C@H]1O[C@@H]1O[C@H](C)C[C@H](N(C)C)[C@H]1O (stereo partly drawn) [14-hydroxy-6-O-methylerythromycin A],ED50,[1],0.069 mg/mouse
same,ED50,Staphylococcus aureus BB [2],0.234 mg/mouse
same,in vivo antibacterial activity against some Gram-positive bacteria,Gram-positive bacteria [3]; compared with 6-O-methylerythromycin A,stronger
same,ED50,Gram-positive bacteria [3]; general statement,3 to 10 mg/kg
same,LD50,[4],560 mg/kg
same,Solubility,"Solubility; in chloroform, methanol, ethanol, acetone, ethyl acetate and pyridine",Soluble
same,Solubility,"Solubility; in ethyl ether, n-hexane, petroleum ether, benzene and water",Poorly soluble
same,MIC,[5],0.05 µg/mL
same,MIC,[6],0.2 µg/mL
same,MIC,[7],0.39 µg/mL
same,MIC,[8],0.025 µg/mL
same,MIC,[9],3.13 µg/mL
same,MIC,[10],0.025 µg/mL
same,MIC,Branhamella catarrhalis,0.05 µg/mL
same,MIC,[11],0.025 µg/mL
same,MIC,Salmonella enteritidis,25 µg/mL
same,MIC,[12],25 µg/mL
same,MIC,[13],0.1 µg/mL
same,MIC,[14],0.025 µg/mL
same,MIC,Micrococcus luteus NIHJ,0.05 µg/mL
same,MIC,[15],0.1 µg/mL
same,MIC,[16],50 µg/mL
same,MIC,Staphylococcus aureus BB [17],0.2 µg/mL
same,MIC,[18],0.2 µg/mL
same,in vitro antibacterial activity,[19],strong
same,in vitro antibacterial activity,Gram-positive bacteria [20],strong
"CC[C@H]1OC(=O)[C@H](C)[C@@H](O[C@H]2C[C@@](C)(OC)[C@@H](O)[C@H](C)O2)[C@H](C)[C@@H](O[C@@H]2O[C@H](C)C[C@H](N(C)C)[C@H]2O)[C@](C)(O)C[C@@H](C)C(=O)[C@H](C)[C@@H](O)[C@]1(C)O [Erythromycin A, erythromycin A]",ED50,[1],1.43 mg/mouse
same,ED50,Staphylococcus aureus BB [2],2.20 mg/mouse
